# Data: patent US11083199B2, “Heterocycle derivatives as pesticides” (Bayer Aktiengesellschaft, priority 2017, dated 2021)
# Assays:
# Type in all cases: in vivo
# Myzus persicae [1] = experiment: Myzus persicae oral test; details: 120 h, application rate 4 ppm, after 5 days, read-out: efficacy
# Procedure: [table] To produce a suitable active ingredient formulation, 1 part by weight of active ingredient is dissolved with the stated parts by weight of solvent and made up to the desired concentration with water. 50 μl of the active ingredient formulation are transferred into microtitre plates and made up to a final volume of 200 μl with 150 μl of IPL41 insect medium (33%+15% sugar). Subsequently, the plates are sealed with parafilm, which a mixed population of green peach aphids (Myzus persicae) within a second microtitre plate is able to puncture and imbibe the solution. After 5 days, the efficacy in % is determined. 100% means that all the aphids have been killed; 0% means that no aphids have been killed.
# Myzus persicae [2] = experiment: Myzus persicae spray test; details: foliar, 120 h, application rate 100 g/ha, Chinese cabbage leaf discs, after 5 days, read-out: efficacy
# Procedure: (§1) [table] To produce a suitable active ingredient formulation, 1 part by weight of active ingredient is dissolved with the specified parts by weight of solvent and made up to the desired concentration with water containing an emulsifier concentration of 1000 ppm. To produce further test concentrations, the formulation is diluted with emulsifier-containing water. Discs of Chinese cabbage leaves (Brassica pekinensis) infested by all stages of the green peach aphid (Myzus persicae) are sprayed with an active ingredient formulation of the desired concentration. After 5 days, the efficacy in % is determined. 100% means that all the aphids have been killed; 0% means that no aphids have been killed.
# Phaedon cochleariae = Phaedon cochleariae spray test; details: 168 h, application rate 100 g/ha, larvae, after 7 days, read-out: efficacy
# Procedure: as §1, with “pekinensis)” for “pekinensis) infested by all stages of the green peach aphid (Myzus persicae)”, “concentration and, after drying, populated with larvae of the mustard beetle (Phaedon cochleariae).” for “concentration.”, “7” for “5”, “beetle larvae” for “aphids”
# Spodoptera frugiperda = Spodoptera frugiperda spray test; details: foliar, 168 h, application rate 100 g/ha, maize leaf discs, caterpillars, after 7 days, read-out: efficacy
# Procedure: [table] To produce a suitable active ingredient formulation, 1 part by weight of active ingredient is dissolved with the specified parts by weight of solvent and made up to the desired concentration with water containing an emulsifier concentration of 1000 ppm. To produce further test concentrations, the formulation is diluted with emulsifier-containing water. Leaf discs of maize (Zea mays) are sprayed with an active ingredient formulation of the desired concentration and, after drying, populated with caterpillars of the fall armyworm (Spodoptera frugiperda). After 7 days, the efficacy in % is determined. 100% means that all the caterpillars have been killed; 0% means that no caterpillar has been killed.
compound,measurement,setting,value
CCS(=O)(=O)c1c(-c2nc3cc(C(F)(F)F)ncc3n2C)nc(-c2cccs2)n1C [Example I-044],pest or weed control at 4 ppm,Myzus persicae [1],100%
CCS(=O)(=O)c1c(-c2nc3cc(C(F)(F)F)ncc3n2C)nc(-c2cccn2C)n1C [Example I-032],pest or weed control at 4 ppm,Myzus persicae [1],100%
CCS(=O)(=O)c1c(-c2nc3cc(C(F)(F)F)ncc3n2C)nc(C2=CCCCC2)n1C [Example I-071],pest or weed control at 100 g/ha,Myzus persicae [2],90%
CCS(=O)(=O)c1c(-c2nc3cc(C(F)(F)F)ncc3n2C)nc(-c2cnccc2F)n1C [Example I-017],pest or weed control at 100 g/ha,Myzus persicae [2],100%
same,pest or weed control at 4 ppm,Myzus persicae [1],100%
CCS(=O)(=O)c1c(-c2nc3cc(C(F)(F)F)nnc3n2C)nc(Br)n1C [Example I-056],pest or weed control at 4 ppm,Myzus persicae [1],100%
CCS(=O)(=O)c1c(-c2nc3cc(C(F)(F)F)ncc3n2C)nc(C(=S)NC)n1C [Example I-047],pest or weed control at 100 g/ha,Myzus persicae [2],100%
same,pest or weed control at 4 ppm,Myzus persicae [1],100%
CCS(=O)(=O)c1c(-c2nc3cc(C(F)(F)F)ncc3n2C)nc(-c2cnc(Cl)n2C)n1C [Example I-059],pest or weed control at 100 g/ha,Myzus persicae [2],100%
same,pest or weed control at 4 ppm,Myzus persicae [1],100%
same,pest or weed control at 100 g/ha,Phaedon cochleariae,100%
"CCS(=O)(=O)c1c(-n2cc3ncc(C(F)(F)F)cc3n2)nc(-c2ccc(C(F)(F)F)cc2)n1C [Example I-098, 2-{5-(Ethylsulfonyl)-1-methyl-2-[4-(trifluoromethyl)phenyl]-1H-imidazol-4-yl}-6-(trifluoromethyl)-2H-pyrazolo[4,3-b]pyridine]",pest or weed control at 4 ppm,Myzus persicae [1],100%
same,pest or weed control at 100 g/ha,Spodoptera frugiperda,100%
same,pest or weed control at 100 g/ha,Phaedon cochleariae,100%
CCS(=O)(=O)c1c(-c2nc3cc(C(F)(F)F)ncc3n2C)nc(-c2cn[nH]c2)n1C [Example I-034],pest or weed control at 100 g/ha,Myzus persicae [2],90%
same,pest or weed control at 4 ppm,Myzus persicae [1],100%
CCS(=O)(=O)c1c(-c2nc3cc(C(F)(F)F)ncc3n2C)nc(-c2cnc(C)s2)n1C [Example I-058],pest or weed control at 100 g/ha,Myzus persicae [2],90%
same,pest or weed control at 4 ppm,Myzus persicae [1],100%
"CCSc1c(-c2nc3cc(C(F)(F)F)ncc3n2C)nc(C(=O)OC)n1C [Example I-035, Methyl 5-(ethylsulfanyl)-1-methyl-4-[3-methyl-6-(trifluoromethyl)-3H-imidazo[4,5-c]pyridin-2-yl]-1H-imidazole-2-carboxylate]",pest or weed control at 100 g/ha,Phaedon cochleariae,83%
CCS(=O)(=O)c1c(-c2nc3cc(C(F)(F)F)ncc3n2C)nc(-c2cc(Cl)c(C(F)(F)F)cc2C)n1C [Example I-081],pest or weed control at 4 ppm,Myzus persicae [1],100%
same,pest or weed control at 100 g/ha,Spodoptera frugiperda,100%
same,pest or weed control at 100 g/ha,Phaedon cochleariae,100%
CCS(=O)(=O)c1c(-c2nc3cc(C(F)(F)F)ncc3n2C)nc(C#CC2CC2)n1C [Example I-024],pest or weed control at 4 ppm,Myzus persicae [1],90%
same,pest or weed control at 100 g/ha,Spodoptera frugiperda,100%
same,pest or weed control at 100 g/ha,Phaedon cochleariae,100%
CCS(=O)(=O)c1c(-c2nc3cc(C(F)(F)F)ncc3n2C)nc(-c2cc(C(F)(F)F)nn2C)n1C [Example I-068],pest or weed control at 4 ppm,Myzus persicae [1],100%
same,pest or weed control at 100 g/ha,Phaedon cochleariae,100%
CCS(=O)(=O)c1c(-c2nc3cc(C(F)(F)F)ncc3n2C)nc(-n2cccn2)n1C [Example I-026],pest or weed control at 100 g/ha,Myzus persicae [2],90%
same,pest or weed control at 4 ppm,Myzus persicae [1],100%
same,pest or weed control at 100 g/ha,Phaedon cochleariae,100%
CCS(=O)(=O)c1c(-n2cc3cnc(C(F)(F)F)cc3n2)nc(-c2ccc(Cl)cc2)n1C [Example I-093],pest or weed control at 4 ppm,Myzus persicae [1],100%
same,pest or weed control at 100 g/ha,Spodoptera frugiperda,100%
same,pest or weed control at 100 g/ha,Phaedon cochleariae,100%
CCS(=O)(=O)c1c(-c2nc3cc(C(F)(F)F)ncc3n2C)nc(-c2ccc(C(F)(F)F)cc2C)n1C [Example I-078],pest or weed control at 4 ppm,Myzus persicae [1],90%
same,pest or weed control at 100 g/ha,Spodoptera frugiperda,100%
same,pest or weed control at 100 g/ha,Phaedon cochleariae,100%
CCS(=O)(=O)c1c(-c2nc3cc(C(F)(F)F)ncc3n2C)nc(-c2ccc(CC#N)cc2)n1C [Example I-065],pest or weed control at 100 g/ha,Myzus persicae [2],100%
same,pest or weed control at 4 ppm,Myzus persicae [1],100%
CCS(=O)(=O)c1c(-c2nc3cc(C(F)(F)F)ncc3n2C)nc(-c2cnn(CC(F)(F)F)c2)n1C [Example I-067],pest or weed control at 100 g/ha,Myzus persicae [2],100%
same,pest or weed control at 4 ppm,Myzus persicae [1],100%
same,pest or weed control at 100 g/ha,Phaedon cochleariae,100%
CCS(=O)(=O)c1c(-c2nc3cc(C(F)(F)F)ncc3n2C)nc(-c2ccnn2C)n1C [Example I-062],pest or weed control at 100 g/ha,Myzus persicae [2],100%
same,pest or weed control at 4 ppm,Myzus persicae [1],100%
same,pest or weed control at 100 g/ha,Phaedon cochleariae,100%
CCS(=O)(=O)c1c(-c2nc3cc(C(F)(F)F)ncc3n2C)nc(C(=S)N(C)C)n1C [Example I-048],pest or weed control at 100 g/ha,Myzus persicae [2],90%
same,pest or weed control at 4 ppm,Myzus persicae [1],100%
CC(C)S(=O)(=O)c1c(-c2nc3cc(C(F)(F)F)ncc3n2C)nc(-c2ccn(C)n2)n1C [Example I-061],pest or weed control at 100 g/ha,Myzus persicae [2],100%
same,pest or weed control at 4 ppm,Myzus persicae [1],100%
same,pest or weed control at 100 g/ha,Phaedon cochleariae,100%
CCc1nc(-c2nc3cc(C(F)(F)F)ncc3n2C)c(S(=O)(=O)CC)n1C [Example I-084],pest or weed control at 100 g/ha,Myzus persicae [2],90%
same,pest or weed control at 4 ppm,Myzus persicae [1],100%
"CCS(=O)(=O)c1c(-c2nc3cc(C(F)(F)F)ncc3n2C)nc(C#N)n1C [Example I-045, 5-(Ethylsulfonyl)-1-methyl-4-[3-methyl-6-(trifluoromethyl)-3H-imidazo[4,5-c]pyridin-2-yl]-1H-imidazole-2-carbonitrile]",pest or weed control at 4 ppm,Myzus persicae [1],100%
CCS(=O)(=O)c1c(-c2nc3cc(C(F)(F)F)ncc3n2C)nc(-c2cncs2)n1C [Example I-051],pest or weed control at 100 g/ha,Myzus persicae [2],90%
same,pest or weed control at 4 ppm,Myzus persicae [1],100%
"CCS(=O)(=O)c1c(-c2nc3cc(C(F)(F)F)ncc3n2C)nc(Br)n1C [Example I-004, 2-[2-Bromo-5-(ethylsulfonyl)-1-methyl-1H-imidazol-4-yl]-3-methyl-6-(trifluoromethyl)-3H-imidazo[4,5-c]pyridine]",pest or weed control at 4 ppm,Myzus persicae [1],100%
CCS(=O)(=O)c1c(-c2nc3cc(C(F)(F)F)ncc3n2C)nc(-c2ccc(Cl)c(C#N)c2)n1C [Example I-079],pest or weed control at 100 g/ha,Myzus persicae [2],90%
same,pest or weed control at 4 ppm,Myzus persicae [1],100%
same,pest or weed control at 100 g/ha,Phaedon cochleariae,83%
"CCS(=O)(=O)c1c(-c2nc3cc(C(F)(F)F)ncc3n2C)nc(C(=O)OC)n1C [Example I-036, Methyl 5-(ethylsulfonyl)-1-methyl-4-[3-methyl-6-(trifluoromethyl)-3H-imidazo[4,5-c]pyridin-2-yl]-1H-imidazole-2-carboxylate]",pest or weed control at 100 g/ha,Myzus persicae [2],100%
same,pest or weed control at 4 ppm,Myzus persicae [1],100%
same,pest or weed control at 100 g/ha,Phaedon cochleariae,100%
CCS(=O)(=O)c1c(-c2nc3cc(C(F)(F)F)ncc3n2C)nc(C(=O)NCC(F)(F)F)n1C [Example I-037],pest or weed control at 4 ppm,Myzus persicae [1],90%
CCS(=O)(=O)c1c(-c2nc3cc(C(F)(F)F)ncc3n2C)nc(Br)n1C(C)C [Example I-002],pest or weed control at 4 ppm,Myzus persicae [1],100%
CCS(=O)(=O)c1c(-c2nc3cc(C(F)(F)F)ncc3n2C)nc(-n2ccnc2)n1C [Example I-028],pest or weed control at 100 g/ha,Myzus persicae [2],90%
same,pest or weed control at 4 ppm,Myzus persicae [1],100%
same,pest or weed control at 100 g/ha,Phaedon cochleariae,100%
CCS(=O)(=O)c1c(-c2nc3cc(C(F)(F)F)ncc3n2C)nc(-c2ccc(C#N)c(C(F)(F)F)c2)n1C [Example I-080],pest or weed control at 4 ppm,Myzus persicae [1],100%
same,pest or weed control at 100 g/ha,Phaedon cochleariae,100%
"CCS(=O)(=O)c1c(-c2nc3cc(C(F)(F)F)ncc3n2C)nc(CCC2CC2)n1C [Example I-085, 2-[2-(2-Cyclopropylethyl)-5-(ethylsulfonyl)-1-methyl-1H-imidazol-4-yl]-3-methyl-6-(trifluoromethyl)-3H-imidazo[4,5-c]pyridine]",pest or weed control at 100 g/ha,Myzus persicae [2],90%
same,pest or weed control at 4 ppm,Myzus persicae [1],100%
CCS(=O)(=O)c1c(-c2nc3cc(C(F)(F)F)ncc3n2C)nc(-c2nccn2C)n1C [Example I-053],pest or weed control at 4 ppm,Myzus persicae [1],100%
CCS(=O)(=O)c1c(-c2nc3cc(C(F)(F)F)ncc3n2C)nc(-c2cncn2C)n1C [Example I-052],pest or weed control at 4 ppm,Myzus persicae [1],100%
CCS(=O)(=O)c1c(-n2cc3cnc(C(F)(F)F)cc3n2)nc(-c2ccccc2)n1C [Example I-095],pest or weed control at 100 g/ha,Myzus persicae [2],90%
same,pest or weed control at 4 ppm,Myzus persicae [1],100%
same,pest or weed control at 100 g/ha,Spodoptera frugiperda,100%
CCS(=O)(=O)c1c(-c2nc3cc(C(F)(F)F)ncc3n2C)nc(C)n1C [Example I-064],pest or weed control at 100 g/ha,Myzus persicae [2],100%
same,pest or weed control at 4 ppm,Myzus persicae [1],100%
same,pest or weed control at 100 g/ha,Phaedon cochleariae,83%
CCS(=O)(=O)c1c(-c2nc3cc(C(F)(F)F)ncc3n2C)nc(C2=CCC(C(F)(F)F)CC2)n1C (centres unmarked) [Example I-072],pest or weed control at 4 ppm,Myzus persicae [1],100%
CCS(=O)(=O)c1c(-c2nc3cc(C(F)(F)F)ncc3n2C)nc(-c2cc(Cl)sc2Cl)n1C [Example I-031],pest or weed control at 4 ppm,Myzus persicae [1],100%
